Assay results reported in patent US12139498B1, “Positive allosteric modulators of the muscarinic acetylcholine receptor M4” (Vanderbilt University, priority 2023, dated 2024).
Read-outs that look alike come from different tables or passages of the source.

Assays:
Dog intrinsic clearance = type: in vitro ADME
Procedure: (§1) Compound 70 was tested in several in in vitro assays to investigate both metabolism and pharmacokinetics. These assays may be performed according to known methods as generally described in the following references: Conde-Ceide et al. ACS Med. Chem. Lett. 2015, 6, 716-720; Morris et al. J. Med. Chem. 2014, 57, 10192-10197; and Bubser et al. ACS Chem. Neurosci. 2014, 5, 920-942.

P450 3A4 = P450 3A4 (Homo sapiens, UniProt P08684); assay: P450 3A4 inhibition; type: in vitro ADME
Procedure: as §1

P450 2D6 = P450 2D6 (Homo sapiens, UniProt P10635); assay: P450 2D6 inhibition; type: in vitro ADME
Procedure: as §1

[1] = In vivo pharmacokinetics in dog
Procedure: Compound 70 was tested in several in vivo assays and the pharmacokinetic parameters listed in the following table may be determined from pharmacokinetic studies in rat, dog, or cynomolgus monkey, according to known methods as generally described in the following references: Garrison et al. J. Med. Chem. 2022, 65, 6273-6286; Felts et al. J. Med. Chem 2017, 60, 5072-5085; and Yu et al. J. Med. Chem. 2021, 64, 4709-4729.

Human M4 = target: T1, Human M4 (Homo sapiens, UniProt P08173); assay: Cellular cAMP Gi HTRF assay (agonist and potentiator modes); type: cell-based; parameters: expressed in transfected cells; host or cells: CHO cells stably expressing human M4; conditions: n = 2
T1 sequence (P08173 1-479): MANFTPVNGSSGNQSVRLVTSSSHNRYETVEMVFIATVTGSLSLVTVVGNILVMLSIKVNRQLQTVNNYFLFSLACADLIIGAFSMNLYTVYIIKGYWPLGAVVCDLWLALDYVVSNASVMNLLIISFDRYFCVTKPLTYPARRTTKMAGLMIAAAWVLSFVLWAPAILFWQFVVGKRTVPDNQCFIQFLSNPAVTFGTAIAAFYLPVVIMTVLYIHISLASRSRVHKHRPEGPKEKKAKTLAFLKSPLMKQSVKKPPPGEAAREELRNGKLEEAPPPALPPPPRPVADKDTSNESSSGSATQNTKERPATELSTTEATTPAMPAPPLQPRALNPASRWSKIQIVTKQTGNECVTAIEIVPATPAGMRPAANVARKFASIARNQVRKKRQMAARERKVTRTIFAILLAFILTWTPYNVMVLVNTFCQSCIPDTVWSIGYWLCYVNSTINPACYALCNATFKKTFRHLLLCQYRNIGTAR
Excerpt: Activation of the M4 receptor leads to the inhibition of cAMP production by coupling to Go proteins. To measure the level of CAMP inhibition by M4 allosteric modulators, a Homogeneous Time-Resolved Fluorescence (HTRF®) CAMP assay was employed using CHO cells stably expressing human or rat M4 receptors. The HTRF CAMP assay is a Time-Resolved Resonance Energy Transfer (TR-FRET) competitive immunoassay. Endogenous intracellular CAMP generated by cells competes with Europium cryptate-labeled cAMP (Europium donor, emission […]) for the binding to a cAMP antibody labeled with d2 (d2-acceptor, emission […]). Thus, the fluorescence emission ratio (665 nm/620 nm) is inversely proportional to the CAMP amount in the cells. Compound-mediated M4 activation results in an increase in HTRF ratio (665 nm/620 nm), indicative of a decrease in intracellular cAMP level. To monitor agonist activity, compounds were added to the M4 cells in the presence of an EC80 concentration of forskolin (adenylyl cyclase activator) which induces a submaximal intracellular cAMP level. To assess potentiator activity, compounds were added to the M4 cells with an EC50 concentration of forskolin in the presence of an EC20 concentration of acetylcholine. This functional assay allows determination of the potency and efficacy of compounds directly activating or potentiating the Gi/o-coupled M4 receptor; representative data are shown in Table 3.
Functional agonist and potentiator activities of compounds were determined by measuring cAMP levels in Chinese Hamster Ovary (CHO) cells stably expressing human or rat M4 muscarinic receptors using an HTRF CAMP Gi/o kit. Cells were maintained in F12 medium containing 10% FBS, 20 mM HEPES, 1× Antibiotic/Antimycotic, and G418 (500 μg/ml) in 37° C. humidified incubators in the presence of 5% CO2. The day before assay, the cells were trypsinized and resuspended in plating medium (growth medium without G418). The cells were plated to white, solid, flat-bottomed, 384 well plates at densities of 4,000 and 6,000 cells/10 μL/well, of human M4 and rat M4 cells, respectively. The cell plates were spun at 100×g for 1 min, then immediately placed in a 37° C. incubator in the presence of 5% CO2 overnight.
The next day, reagents were freshly diluted at a 2× concentration in assay buffer using F12 basal medium or stimulation buffer. All assay buffers contained 500 μM IBMX to block cAMP degradation. Activation of M4 by compounds was examined in cells stimulated with an EC80 concentration of forskolin to induce submaximal intracellular cAMP levels. Forskolin EC80 concentrations were determined from forskolin concentration response curves (CRCs) and ranged from 1.5 to 2.5 μM. […]

Sequence of P450 2D6 (P10635 whole entry): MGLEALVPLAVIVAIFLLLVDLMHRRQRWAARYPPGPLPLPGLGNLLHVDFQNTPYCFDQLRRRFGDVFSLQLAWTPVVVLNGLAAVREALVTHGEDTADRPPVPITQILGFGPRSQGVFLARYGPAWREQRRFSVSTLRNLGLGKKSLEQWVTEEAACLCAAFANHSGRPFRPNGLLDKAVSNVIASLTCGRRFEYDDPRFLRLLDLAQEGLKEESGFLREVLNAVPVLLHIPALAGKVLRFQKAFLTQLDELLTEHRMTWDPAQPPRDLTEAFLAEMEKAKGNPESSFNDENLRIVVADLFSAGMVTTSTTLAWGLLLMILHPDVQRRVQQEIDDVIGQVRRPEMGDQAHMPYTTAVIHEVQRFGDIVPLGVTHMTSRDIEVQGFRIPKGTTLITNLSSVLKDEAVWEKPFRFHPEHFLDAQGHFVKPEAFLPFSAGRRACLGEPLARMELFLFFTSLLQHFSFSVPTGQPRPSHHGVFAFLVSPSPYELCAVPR
Sequence of P450 3A4 (P08684 whole entry): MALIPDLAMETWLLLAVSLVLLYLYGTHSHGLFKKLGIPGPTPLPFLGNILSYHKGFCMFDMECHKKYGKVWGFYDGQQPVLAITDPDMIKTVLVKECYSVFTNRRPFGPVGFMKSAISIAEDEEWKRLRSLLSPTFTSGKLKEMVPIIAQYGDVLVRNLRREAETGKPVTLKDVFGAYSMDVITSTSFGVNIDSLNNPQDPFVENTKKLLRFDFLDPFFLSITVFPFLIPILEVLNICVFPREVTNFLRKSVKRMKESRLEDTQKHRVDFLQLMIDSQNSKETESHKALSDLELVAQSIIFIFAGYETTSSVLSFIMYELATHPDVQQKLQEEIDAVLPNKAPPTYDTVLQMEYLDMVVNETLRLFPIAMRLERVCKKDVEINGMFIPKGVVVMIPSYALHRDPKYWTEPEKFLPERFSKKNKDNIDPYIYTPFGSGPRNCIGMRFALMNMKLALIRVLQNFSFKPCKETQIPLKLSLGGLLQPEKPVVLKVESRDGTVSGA

For `Cc1c(N2CCc3nc(C4(F)CC4)sc3C2)nc2nn(C)c(=O)n2c1C` [Compound 70, 7-(2-(1-fluorocyclopropyl)-6,7-dihydrothiazolo[5,4-c]pyridin-5(4H)-yl)-2,5,6-trimethyl-[1,2,4]triazolo[4,3-a]pyrimidin-3(2H)-one], the CLint scaled (Dog intrinsic clearance) was 17 mL/min/kg, the IC50 (P450 3A4) was greater than 30 µM and the IC50 (P450 2D6) was greater than 30 µM. For the same compound, the “Dog oral F (3 mg/kg)” value ([1]; oral 3 mg/kg) was 83%, the clearance ([1]; plasma, read-out: Dog CLp) was 24.4 mL/min/kg and the half-life ([1]; plasma, read-out: Dog Elim. t1/2 (converted)) was 2.1 h. The Vd ([1]; plasma, read-out: Dog Vss) was 3.1 L/kg, the “hM4_cAMP Activity Agonist % ACh Max” value (Human M4; agonist mode, EC80 forskolin, no acetylcholine) was 81 % ACh Max and the EC50 (Human M4; agonist mode, EC80 forskolin, no acetylcholine, read-out: hM4_cAMP Activity Agonist EC50) was 0.019 µM. The “hM4_cAMP Activity PAM % ACh Max” value (Human M4; potentiator mode, forskolin plus EC20 acetylcholine) was 74 % ACh Max and the EC50 (Human M4; potentiator mode, forskolin plus EC20 acetylcholine, read-out: hM4_cAMP Activity PAM EC50) was 0.011 µM.
